Experimental findings from patent US20230295087A1, “AGONISTS OF ROR GAMMAt” (BRISTOL-MYERS SQUIBB COMPANY, priority 2019, published 2023) are described below.

pEC50: −log10 of the molar value.

This assay addresses T1, human RORgT (Homo sapiens, UniProt P51449).
T1 construct: expressed in transfected cells
T1 sequence (P51449 267-516): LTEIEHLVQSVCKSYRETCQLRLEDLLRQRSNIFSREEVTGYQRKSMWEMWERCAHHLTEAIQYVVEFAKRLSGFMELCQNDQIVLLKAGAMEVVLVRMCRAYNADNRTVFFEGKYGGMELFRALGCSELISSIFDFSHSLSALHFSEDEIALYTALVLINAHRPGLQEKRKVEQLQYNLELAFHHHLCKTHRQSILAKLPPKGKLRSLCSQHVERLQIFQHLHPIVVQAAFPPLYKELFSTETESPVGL
The assay is described as follows: RORgT Gal4 Luciferase Reporter Gene Assay. Particulars: engineered Jurkat cells overexpressing RORgT (LBD or full length) fused with Gal4 Luc reporter; 18 hours at 37° C.; luminescence. The format is cell-based. In outline:
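Jurkat cells expressing Gal4 Luc with either RORgT LBD (aa267-516) or full-length human RORgT, 10,000 cells/well, treated with compound (40 µM to 0.67 nM final, 3-fold dilutions) for 18 h at 37° C. Steady-Glo luminescence read; inhibition of constitutive activity as % signal-window reduction relative to a control compound.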
One may read the pEC50 as −log10 of the EC50, conventionally taken in molar units. A lower pEC50 goes with a large EC50. Take `N#CCCN1C(=O)CC[C@H]1C(=O)N1CC[C@@]2(S(=O)(=O)c3ccc(F)cc3)c3ccc(OCc4cc(F)c(F)cc4Cl)cc3CC[C@@H]12` [Example 158, 3-[(2S)-2-[(3aR,9bR)-7-[(2-chloro-4,5-difluorophenyl)methoxy]-9b-(4-fluorobenzenesulfonyl)-1H,2H,3H,3aH,4H,5H,9bH-benzo[e]indole-3-carbonyl]-5-oxopyrrolidin-l-yl]propanenitrile]: the pEC50 was 7.92.

Consider `O=C(O)[C@H]1CC[C@H](C(=O)N2CC[C@@]3(S(=O)(=O)c4ccc(F)cc4)c4ccc(CCc5c(Cl)cccc5Cl)cc4CC[C@@H]23)CC1` [Example 159, (1r,4r)-4-[(3aR,9bR)-7-[2-(2,6-dichlorophenyl)ethyl]-9b-(4-fluorobenzenesulfonyl)-1H,2H,3H,3aH,4H,5H,9bH-benzo[e]indole-3-carbonyl]cyclohexane-1-carboxylic acid], for which the pEC50 was 8.96.

In turn, `N#CCCN1C(=O)CC[C@H]1C(=O)N1CC[C@@]2(S(=O)(=O)c3ccc(F)cc3)c3ccc(OCc4c(F)cccc4Cl)cc3CC[C@@H]12` [Example 160, 3-[(2S)-2-[(3aR,9bR)-7-[(2-chloro-6-fluorophenyl)methoxy]-9b-(4-fluorobenzenesulfonyl)-1H,2H,3H,3aH,4H,5H,9bH-benzo[e]indole-3-carbonyl]-5-oxopyrrolidin-l-yl]propanenitrile] gave a pEC50 of 8.00.

In the case of `O=C(C1CCS(=O)(=O)CC1)N1CC[C@@]2(S(=O)(=O)c3ccc(F)cc3)c3ccc(CCc4c(Cl)cccc4Cl)cc3CC[C@@H]12` [Example 161, 4-[(3aR,9bR)-7-[2-(2,6-dichlorophenyl)ethyl]-9b-(4-fluorobenzenesulfonyl)-1H,2H,3H,3aH,4H,5H,9bH-benzo[e]indole-3-carbonyl]-1λ^6-thiane-1,1-dione], the pEC50 was 8.24.

Compound `NC(=O)N1CCC(C(=O)N2CC[C@@]3(S(=O)(=O)c4ccc(F)cc4)c4ccc(CCc5c(Cl)cccc5Cl)cc4CC[C@@H]23)CC1` [Example 162, 4-[(3aR,9bR)-7-[2-(2,6-dichlorophenyl)ethyl]-9b-(4-fluorobenzenesulfonyl)-1H,2H,3H,3aH,4H5H,9bH-benzo[e]indole-3-carbonyl]piperidine-1-carboxamide] gave a pEC50 of 8.09.

`O=C(C1CCS(=O)(=O)C1)N1CC[C@@]2(S(=O)(=O)c3ccc(F)cc3)c3ccc(OCc4c(F)cccc4Cl)cc3CC[C@@H]12` (stereo partly drawn) [Example 163, 3-[(3aR,9bR)-7-[(2-chloro-6-fluorophenyl)methoxy]-9b-(4-fluorobenzenesulfonyl)-1H,2H,3H,3aH,4H,5H,9bH-benzo[e]indole-3-carbonyl]-1λ^6-thiolane-1,1-dione] gave a pEC50 of 7.92.

Take `CS(=O)(=O)N1CCC(C(=O)N2CC[C@@]3(S(=O)(=O)c4ccc(F)cc4)c4ccc(OCc5c(F)cccc5Cl)cc4CC[C@@H]23)CC1` [Example 164, 4-[(3aR,9bR)-7-[(2-chloro-6-fluorophenyl)methoxy]-9b-(4-fluorobenzenesulfonyl)-1H,2H,3H,3aH,4H,5H,9bH-benzo[e]indole-3-carbonyl]-1-methanesulfonylpiperidine]: the pEC50 was 7.62.

`O=C(CN1CCS(=O)(=O)CC1)N1CC[C@@]2(S(=O)(=O)c3ccc(F)cc3)c3ccc(OCc4c(F)cccc4Cl)cc3CC[C@@H]12` [Example 165, 4-{2-[(3aR,9bR)-7-[(2-chloro-6-fluorophenyl)methoxy]-9b-(4-fluorobenzenesulfonyl)-1H,2H,3H,3aH,4H,5H,9bH-benzo[e]indol-3-yl]-2-oxoethyl}-1λ^6-thiomorpholine-1,1-dione] showed a pEC50 of 7.96.

In the case of `O=C(C1CCS(=O)(=O)CC1)N1CC[C@@]2(S(=O)(=O)c3ccc(F)cc3)c3ccc(OCc4c(F)cccc4Cl)cc3CC[C@@H]12` [Example 166, 4-[(3aR,9bR)-7-[(2-chloro-6-fluorophenyl)methoxy]-9b-(4-fluorobenzenesulfonyl)-1H,2H,3H,3aH,4H,5H,9bH-benzo[e]indole-3-carbonyl]-1λ^6-thiane-1,1-dione], the pEC50 is 8.11.

As to `CC(=O)N1CCC(C(=O)N2CC[C@@]3(S(=O)(=O)c4ccc(F)cc4)c4ccc(OCc5c(F)cccc5Cl)cc4CC[C@@H]23)CC1` [Example 167, 1-{4-[(3aR,9bR)-7-[(2-chloro-6-fluorophenyl)methoxy]-9b-(4-fluorobenzenesulfonyl)-1H,2H,3H,3aH,4H,5H,9bH-benzo[e]indole-3-carbonyl]piperidin-1-yl}ethan-1-one], the pEC50 is 7.89.

`COC(=O)[C@H]1CC[C@H](C(=O)N2CC[C@@]3(S(=O)(=O)c4ccc(F)cc4)c4ccc(OCc5c(Cl)cccc5Cl)cc4CC[C@@H]23)CC1` [Example 169, methyl(1r,4r)-4-[(3aR,9bR)-7-[(2,6-dichlorophenyl)methoxy]-9b-(4-fluorobenzenesulfonyl)-1H,2H,3H,3aH,4H,5H,9bH-benzo[e]indole-3-carbonyl]cyclohexane-1-carboxylate] had a negative-log EC50 (pEC50) of 7.43.

In turn, `O=C(C1CCS(=O)(=O)C1)N1CC[C@@]2(S(=O)(=O)c3ccc(F)cc3)c3ccc(OCc4c(Cl)cccc4Cl)cc3CC[C@@H]12` (stereo partly drawn) [Example 170, 3-[(3aR,9bR)-7-[(2,6-dichlorophenyl)methoxy]-9b-(4-fluorobenzenesulfonyl)-1H,2H,3H,3aH,4H,5H,9bH-benzo[e]indole-3-carbonyl]-1λ^6-thiolane-1,1-dione] gave a pEC50 of 7.85.

The compound `CN1CCC(C(=O)N2CC[C@@]3(S(=O)(=O)c4ccc(F)cc4)c4ccc(OCc5c(Cl)cccc5Cl)cc4CC[C@@H]23)CC1` [Example 171, 4-[(3aR,9bR)-7-[(2,6-dichlorophenyl)methoxy]-9b-(4-fluorobenzenesulfonyl)-1H,2H,3H,3aH,4H,5H,9bH-benzo[e]indole-3-carbonyl]-1-methylpiperidine] gave a pEC50 of 6.95.

Compound `NC(=O)N1CCC(C(=O)N2CC[C@@]3(S(=O)(=O)c4ccc(F)cc4)c4ccc(OCc5c(Cl)cccc5Cl)cc4CC[C@@H]23)CC1` [Example 172, 4-[(3aR,9bR)-7-[(2,6-dichlorophenyl)methoxy]-9b-(4-fluorobenzenesulfonyl)-1H,2H,3H,3aH,4H,5H,9bH-benzo[e]indole-3-carbonyl]piperidine-1-carboxamide] had a pEC50 of 7.72.

As to `O=C(CN1CCS(=O)(=O)CC1)N1CC[C@@]2(S(=O)(=O)c3ccc(F)cc3)c3ccc(OCc4c(Cl)cccc4Cl)cc3CC[C@@H]12` [Example 173, 4-{2-[(3aR,9bR)-7-[(2,6-dichlorophenyl)methoxy]-9b-(4-fluorobenzenesulfonyl)-1H,2H,3H,3aH,4H,5H,9bH-benzo[e]indol-3-yl]-2-oxoethyl}-1λ^6-thiomorpholine-1,1-dione], the negative-log EC50 (pEC50) was 7.85.

`CC(=O)N1CCC(C(=O)N2CC[C@@]3(S(=O)(=O)c4ccc(F)cc4)c4ccc(OCc5cc(F)ccc5Cl)cc4CC[C@@H]23)CC1` [Example 174, 1-{4-[(3aR,9bR)-7-[(2-chloro-5-fluorophenyl)methoxy]-9b-(4-fluorobenzenesulfonyl)-1H,2H,3H,3aH,4H,5H,9bH-benzo[e]indole-3-carbonyl]piperidin-1-yl}ethan-1-one] had a pEC50 of 7.59.

Regarding `O=C(O)[C@H]1CC[C@H](C(=O)N2CC[C@@]3(S(=O)(=O)c4ccc(F)cc4)c4ccc(OCc5cc(F)ccc5Cl)cc4CC[C@@H]23)CC1` [Example 175, (1r,4r)-4-[(3aR,9bR)-7-[(2-chloro-5-fluorophenyl)methoxy]-9b-(4-fluorobenzenesulfonyl)-1H,2H,3H,3aH,4H,5H,9bH-benzo[e]indole-3-carbonyl]cyclohexane-1-carboxylic acid], the pEC50 is 8.02.

Consider `COC(=O)[C@H]1CC[C@H](C(=O)N2CC[C@@]3(S(=O)(=O)c4ccc(F)cc4)c4ccc(OCc5cc(F)ccc5Cl)cc4CC[C@@H]23)CC1` [Example 176, methyl (1r,4r)-4-[(3aR,9bR)-7-[(2-chloro-5-fluorophenyl)methoxy]-9b-(4-fluorobenzenesulfonyl)-1H,2H,3H,3aH,4H,5H,9bH-benzo[e]indole-3-carbonyl]cyclohexane-1-carboxylate], for which the negative logarithm of the EC50 (pEC50) was 7.25.

`CS(=O)(=O)N1CCC(C(=O)N2CC[C@@]3(S(=O)(=O)c4ccc(F)cc4)c4ccc(OCc5cc(F)ccc5Cl)cc4CC[C@@H]23)CC1` [Example 177, 4-[(3aR,9bR)-7-[(2-chloro-5-fluorophenyl)methoxy]-9b-(4-fluorobenzenesulfonyl)-1H,2H,3H,3aH,4H,5H,9bH-benzo[e]indole-3-carbonyl]-1-methanesulfonylpiperidine] had a pEC50 of 7.74.

`O=C(C1CCS(=O)(=O)C1)N1CC[C@@]2(S(=O)(=O)c3ccc(F)cc3)c3ccc(OCc4cc(F)ccc4Cl)cc3CC[C@@H]12` (stereo partly drawn) [Example 178, 3-[(3aR,9bR)-7-[(2-chloro-5-fluorophenyl)methoxy]-9b-(4-fluorobenzenesulfonyl)-1H,2H,3H,3aH,4H,5H,9bH-benzo[e]indole-3-carbonyl]-1λ^6-thiolane-1,1-dione] showed a pEC50 of 7.92.

Compound `NC(=O)N1CCC(C(=O)N2CC[C@@]3(S(=O)(=O)c4ccc(F)cc4)c4ccc(OCc5cc(F)ccc5Cl)cc4CC[C@@H]23)CC1` [Example 179, 4-[(3aR,9bR)-7-[(2-chloro-5-fluorophenyl)methoxy]-9b-(4-fluorobenzenesulfonyl)-1H,2H,3H,3aH,4H,5H,9bH-benzo[e]indole-3-carbonyl]piperidine-1-carboxamide] gave a negative-log EC50 (pEC50) of 7.92.

For `O=C(CN1CCS(=O)(=O)CC1)N1CC[C@@]2(S(=O)(=O)c3ccc(F)cc3)c3ccc(OCc4cc(F)ccc4Cl)cc3CC[C@@H]12` [Example 180, 4-{2-[(3aR,9bR)-7-[(2-chloro-5-fluorophenyl)methoxy]-9b-(4-fluorobenzenesulfonyl)-1H,2H,3H,3aH,4H,5H,9bH-benzo[e]indol-3-yl]-2-oxoethyl}-1λ^6-thiomorpholine-1,1-dione], the pEC50 is 7.68.
